Reference: patent publication US12458020B2, “Synergistic herbicidal mixtures and compositions comprising triclopyr and phosphate ester adjuvants” (SBM Développement SAS, priority 2019, dated 2025)

Legend:
[1] = test system: English ivy (Hedera helix); experiment: Field trial of triclopyr plus phosphate ester adjuvants on English ivy plots (Example 2); format: in vivo; settings: triclopyr by itself, 0.55% w/v; single application
Protocol: The objective of the trial was to measure the effects of adjuvants in the same class of chemistry in the control of the evasive weed species English ivy (Hedera helix). The trial was conducted in a recreational setting at a golf course. Plots were 2×2 meters and the treatments consisted of triclopyr in the form of BioAdvanced Brush Killer Plus® 8.8% triclopyr mixed to a 0.55% w/v concentration for all the treatments, and various adjuvants treated at 0.5% ai/v (i.e., % w/v of the active ingredient) (Table 2). Controls included an untreated check group. All treatments and controls were repeated in triplicate (i.e., three plots per group). The plots were treated at the standard rate of 2 gal of mixed product per 1000 square feet. The plots were rated for the percent English Ivy in each plot. […] Trial was observed over time for the presence of English ivy in each plot.

[2] = test system: brush (e.g., poison ivy, poison oak, black berries, etc.); experiment: Field trial of residual control of brush, rated as bare ground (Example 3); format: in vivo; settings: triclopyr alone at 0.275, 0.55 and 0.8% ai/v
Protocol: The objective of the trial was to determine the effects of concentration and adjuvant on triclopyr and its residual control of brush. The trial was conducted in a recreational setting at a golf course. Plots were 1×1 meters and the treatments comprised BioAdvanced Brush Killer Plus® (8.8% triclopyr) mixed to 0.275% ai/v with various adjuvants treated at 0.1% ai/v (i.e., % weight of the active ingredient per volume) (Table 3), Controls included an untreated check group and triclopyr alone at three concentrations (0.275, 0.55, and 0.8% ai/v). All treatments and controls were repeated in triplicate (i.e., three plots per group). The plots were treated at the standard rate of 2 gal of mixed product per 1000 square feet. The plots were rated for the percent of brush (e.g., poison ivy, poison oak, black berries, etc.) in each plot. […] The observations were based upon the amount of clear area (without vegetation) in each plot.

Question: What does the source list for `O=C(O)COc1nc(Cl)c(Cl)cc1Cl` [triclopyr, 3,5,6-Trichloro-2-pyridinyloxyacetic acid]?
Answer: control of the English ivy [1]: about 53%; residual efficacy on brush as a function of triclopyr concentration [2]: the higher the concentration of the triclopyr the longer the residual efficacy
